Reference: ChEMBL document CHEMBL1144300, “Tellurium-based cysteine protease inhibitors: evaluation of novel organotellurium(IV) compounds as inhibitors of human cathepsin B” (Bioorg Med Chem Lett, 2005)

These compounds were tested against Cathepsin B (Homo sapiens) (UniProt P07858) (assay: Second-order rate constant for inactivation of human cathepsin B).

Structure (SMILES)	K2 [M⁻¹ s⁻¹]
Cl[Te]1(Cl)OCCO1	0.037
COc1ccc([Te](Cl)(Cl)/C=C(\Cl)c2ccccc2)cc1	7900
CC[N+](CC)(CC)Cc1ccccc1.ClC1=C[Te](Cl)(Cl)OC1	6000
OC(C/C(=C\Cl)[Te](Cl)(Cl)Cl)c1ccccc1 (centres undefined)	12000
COc1ccc([Te]2(Cl)OC3(CCCCCC3)/C2=C\Cl)cc1 (centres undefined)	1600
COc1ccc([Te]2(Cl)OC3(CCCCC3)/C2=C\Cl)cc1 (centres undefined)	36000
COc1ccc([Te](Cl)(Cl)/C(=C/Cl)C(C)(C)O)cc1	11000
COc1ccc([Te]2(Cl)OC3(CCCCC3)/C2=C\Br)cc1 (centres undefined)	7700
COc1ccccc1C(=O)/C=C(/c1ccccc1OC)[Te](Cl)(Cl)Cl	15000
